Activity calls are given as the source filed them.

Data set [1] can be described thus: Half life in Beagle dog at 1 mg/kg, iv. It counts as ADME, organism-based, Canis lupus familiaris. Conditions: in vivo.
For data set [2], the target named is Bromodomain testis-specific protein (Homo sapiens) (UniProt Q58F21). Nature of the data set: Inhibition of human partial length BRDT bromodomain 1 (N21 to E137 residues) expressed in bacterial expression system by BROMOscan assay.
Data set [3] concerns the target Bromodomain and WD repeat-containing protein 1 (Homo sapiens) (UniProt Q9NSI6). Nature of the data set: Inhibition of human partial length WDR9 bromodomain 2 (A1310 to E1430 residues) expressed in bacterial expression system by BROMOscan assay.
Data set [4] concerns the target Bromodomain-containing protein 3 (Homo sapiens) (UniProt Q15059). Nature of the data set: Inhibition of human partial length BRD3 bromodomain 2 (G306 to P416 residues) expressed in bacterial expression system by BROMOscan assay.
For data set [5], the target named is ATPase family AAA domain-containing protein 2 (Homo sapiens) (UniProt Q6PL18). The experiment in a line: Inhibition of human partial length ATAD2A (Q981 to R1108 residues) expressed in bacterial expression system by BROMOscan assay.
Sequence of ATPase family AAA domain-containing protein 2 (Homo sapiens) (Q6PL18 whole entry, the tested form may be a part, canonical isoform): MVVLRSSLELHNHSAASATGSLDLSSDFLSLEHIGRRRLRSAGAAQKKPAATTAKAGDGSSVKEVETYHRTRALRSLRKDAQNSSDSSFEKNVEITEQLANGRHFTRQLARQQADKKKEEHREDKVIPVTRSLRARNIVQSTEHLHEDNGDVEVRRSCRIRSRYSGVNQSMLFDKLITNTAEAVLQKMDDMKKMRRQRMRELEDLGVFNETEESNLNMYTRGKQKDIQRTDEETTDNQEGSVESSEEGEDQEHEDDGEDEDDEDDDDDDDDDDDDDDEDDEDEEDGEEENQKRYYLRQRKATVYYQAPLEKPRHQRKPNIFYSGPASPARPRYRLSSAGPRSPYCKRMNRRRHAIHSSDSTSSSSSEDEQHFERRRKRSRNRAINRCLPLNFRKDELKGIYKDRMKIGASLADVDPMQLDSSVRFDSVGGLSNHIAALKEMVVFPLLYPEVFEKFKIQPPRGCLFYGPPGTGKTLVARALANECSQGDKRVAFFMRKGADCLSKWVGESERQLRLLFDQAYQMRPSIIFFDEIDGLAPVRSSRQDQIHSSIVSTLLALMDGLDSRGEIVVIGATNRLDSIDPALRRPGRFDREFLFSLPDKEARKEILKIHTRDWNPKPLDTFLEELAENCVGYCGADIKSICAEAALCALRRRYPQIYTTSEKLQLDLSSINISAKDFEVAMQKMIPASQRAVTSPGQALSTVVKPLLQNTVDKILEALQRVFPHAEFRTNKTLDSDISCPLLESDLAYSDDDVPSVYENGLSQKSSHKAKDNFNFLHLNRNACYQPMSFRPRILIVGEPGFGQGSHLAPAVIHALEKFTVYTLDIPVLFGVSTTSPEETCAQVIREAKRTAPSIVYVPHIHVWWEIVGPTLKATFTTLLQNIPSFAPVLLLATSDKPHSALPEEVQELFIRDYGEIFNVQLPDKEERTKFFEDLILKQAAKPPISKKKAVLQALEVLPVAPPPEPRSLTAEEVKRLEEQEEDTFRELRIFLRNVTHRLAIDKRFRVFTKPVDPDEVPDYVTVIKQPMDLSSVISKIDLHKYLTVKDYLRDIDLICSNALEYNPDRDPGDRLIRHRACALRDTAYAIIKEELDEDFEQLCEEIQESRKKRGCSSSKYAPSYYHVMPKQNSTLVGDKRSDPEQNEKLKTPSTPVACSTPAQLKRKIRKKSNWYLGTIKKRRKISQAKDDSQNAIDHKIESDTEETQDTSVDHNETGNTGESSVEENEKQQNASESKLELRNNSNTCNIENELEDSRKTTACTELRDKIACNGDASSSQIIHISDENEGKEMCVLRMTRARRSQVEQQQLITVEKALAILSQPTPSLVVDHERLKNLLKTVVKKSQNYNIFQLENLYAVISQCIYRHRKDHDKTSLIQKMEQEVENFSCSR
Data set [6] has as its target Bromodomain-containing protein 2 (Homo sapiens) (UniProt P25440). The experiment in a line: Inhibition of human partial length BRD2 bromodomain 1/2 isoform 1 (K71 to D455 residues) by BROMOscan assay.
In the next data set the test system is Blood. Nature of the data set: Inhibition of LPS-induced MCP1 production in human whole blood preincubated for 30 mins followed by LPS addition measured after 24 hrs by immuno assay. In kind it is functional, tissue-based.
The target in data set [7] is SWI/SNF-related matrix-associated actin-dependent regulator of chromatin subfamily A member 4 (Homo sapiens) (UniProt P51532). The experiment in a line: Inhibition of human partial length SMARCA4 (A1448 to S1575 residues) expressed in bacterial expression system by BROMOscan assay.
The target of data set [8] is Histone acetyltransferase KAT2A (Homo sapiens) (UniProt Q92830). The experiment in a line: Inhibition of human partial length GCN5L2 (E726 to K837 residues) expressed in bacterial expression system by BROMOscan assay.
Data set [9] has as its target Chromatin remodeling regulator CECR2 (Homo sapiens) (UniProt Q9BXF3). The experiment in a line: Inhibition of human partial length CECR2 (P423 to D543 residues) expressed in bacterial expression system by BROMOscan assay.
The target of data set [10] is Nucleosome-remodeling factor subunit BPTF (Homo sapiens) (UniProt Q12830). The experiment in a line: Inhibition of human partial length FALZ (S2791 to H2911 residues) expressed in bacterial expression system by BROMOscan assay.
The target of data set [11] is SWI/SNF-related matrix-associated actin-dependent regulator of chromatin subfamily A member 2 (Homo sapiens) (UniProt P51531). Nature of the data set: Inhibition of human partial length SMARCA2 (S1377 to Q1486 residues) expressed in bacterial expression system by BROMOscan assay.
In data set [12] the target is Bromodomain-containing protein 3 (Homo sapiens) (UniProt Q15059). The experiment in a line: Inhibition of human partial length BRD3 bromodomain 1 (P24 to E144 residues) expressed in bacterial expression system by BROMOscan assay.
Sequence of Bromodomain-containing protein 3 (Homo sapiens) (Q15059 2-726 limits assumed): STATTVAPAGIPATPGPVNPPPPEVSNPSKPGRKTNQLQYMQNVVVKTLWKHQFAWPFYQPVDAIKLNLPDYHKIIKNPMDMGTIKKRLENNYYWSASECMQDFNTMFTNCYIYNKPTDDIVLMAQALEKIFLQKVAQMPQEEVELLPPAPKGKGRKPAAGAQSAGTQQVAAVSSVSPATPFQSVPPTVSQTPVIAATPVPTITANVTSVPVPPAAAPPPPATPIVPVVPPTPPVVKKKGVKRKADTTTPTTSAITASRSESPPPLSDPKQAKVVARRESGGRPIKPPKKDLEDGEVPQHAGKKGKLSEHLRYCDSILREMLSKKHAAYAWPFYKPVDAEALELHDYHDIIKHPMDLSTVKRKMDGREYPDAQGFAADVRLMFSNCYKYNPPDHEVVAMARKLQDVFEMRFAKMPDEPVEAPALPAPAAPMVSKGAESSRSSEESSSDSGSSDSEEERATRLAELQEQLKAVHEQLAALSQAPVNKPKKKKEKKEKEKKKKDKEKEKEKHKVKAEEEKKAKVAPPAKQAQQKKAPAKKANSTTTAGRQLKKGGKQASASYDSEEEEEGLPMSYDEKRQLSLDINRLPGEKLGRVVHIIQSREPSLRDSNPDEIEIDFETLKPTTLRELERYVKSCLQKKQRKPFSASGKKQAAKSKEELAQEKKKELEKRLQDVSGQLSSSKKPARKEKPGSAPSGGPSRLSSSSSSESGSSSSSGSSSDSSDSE

Sequence of Bromodomain and WD repeat-containing protein 1 (Homo sapiens) (Q9NSI6 whole entry, the tested form may be a part): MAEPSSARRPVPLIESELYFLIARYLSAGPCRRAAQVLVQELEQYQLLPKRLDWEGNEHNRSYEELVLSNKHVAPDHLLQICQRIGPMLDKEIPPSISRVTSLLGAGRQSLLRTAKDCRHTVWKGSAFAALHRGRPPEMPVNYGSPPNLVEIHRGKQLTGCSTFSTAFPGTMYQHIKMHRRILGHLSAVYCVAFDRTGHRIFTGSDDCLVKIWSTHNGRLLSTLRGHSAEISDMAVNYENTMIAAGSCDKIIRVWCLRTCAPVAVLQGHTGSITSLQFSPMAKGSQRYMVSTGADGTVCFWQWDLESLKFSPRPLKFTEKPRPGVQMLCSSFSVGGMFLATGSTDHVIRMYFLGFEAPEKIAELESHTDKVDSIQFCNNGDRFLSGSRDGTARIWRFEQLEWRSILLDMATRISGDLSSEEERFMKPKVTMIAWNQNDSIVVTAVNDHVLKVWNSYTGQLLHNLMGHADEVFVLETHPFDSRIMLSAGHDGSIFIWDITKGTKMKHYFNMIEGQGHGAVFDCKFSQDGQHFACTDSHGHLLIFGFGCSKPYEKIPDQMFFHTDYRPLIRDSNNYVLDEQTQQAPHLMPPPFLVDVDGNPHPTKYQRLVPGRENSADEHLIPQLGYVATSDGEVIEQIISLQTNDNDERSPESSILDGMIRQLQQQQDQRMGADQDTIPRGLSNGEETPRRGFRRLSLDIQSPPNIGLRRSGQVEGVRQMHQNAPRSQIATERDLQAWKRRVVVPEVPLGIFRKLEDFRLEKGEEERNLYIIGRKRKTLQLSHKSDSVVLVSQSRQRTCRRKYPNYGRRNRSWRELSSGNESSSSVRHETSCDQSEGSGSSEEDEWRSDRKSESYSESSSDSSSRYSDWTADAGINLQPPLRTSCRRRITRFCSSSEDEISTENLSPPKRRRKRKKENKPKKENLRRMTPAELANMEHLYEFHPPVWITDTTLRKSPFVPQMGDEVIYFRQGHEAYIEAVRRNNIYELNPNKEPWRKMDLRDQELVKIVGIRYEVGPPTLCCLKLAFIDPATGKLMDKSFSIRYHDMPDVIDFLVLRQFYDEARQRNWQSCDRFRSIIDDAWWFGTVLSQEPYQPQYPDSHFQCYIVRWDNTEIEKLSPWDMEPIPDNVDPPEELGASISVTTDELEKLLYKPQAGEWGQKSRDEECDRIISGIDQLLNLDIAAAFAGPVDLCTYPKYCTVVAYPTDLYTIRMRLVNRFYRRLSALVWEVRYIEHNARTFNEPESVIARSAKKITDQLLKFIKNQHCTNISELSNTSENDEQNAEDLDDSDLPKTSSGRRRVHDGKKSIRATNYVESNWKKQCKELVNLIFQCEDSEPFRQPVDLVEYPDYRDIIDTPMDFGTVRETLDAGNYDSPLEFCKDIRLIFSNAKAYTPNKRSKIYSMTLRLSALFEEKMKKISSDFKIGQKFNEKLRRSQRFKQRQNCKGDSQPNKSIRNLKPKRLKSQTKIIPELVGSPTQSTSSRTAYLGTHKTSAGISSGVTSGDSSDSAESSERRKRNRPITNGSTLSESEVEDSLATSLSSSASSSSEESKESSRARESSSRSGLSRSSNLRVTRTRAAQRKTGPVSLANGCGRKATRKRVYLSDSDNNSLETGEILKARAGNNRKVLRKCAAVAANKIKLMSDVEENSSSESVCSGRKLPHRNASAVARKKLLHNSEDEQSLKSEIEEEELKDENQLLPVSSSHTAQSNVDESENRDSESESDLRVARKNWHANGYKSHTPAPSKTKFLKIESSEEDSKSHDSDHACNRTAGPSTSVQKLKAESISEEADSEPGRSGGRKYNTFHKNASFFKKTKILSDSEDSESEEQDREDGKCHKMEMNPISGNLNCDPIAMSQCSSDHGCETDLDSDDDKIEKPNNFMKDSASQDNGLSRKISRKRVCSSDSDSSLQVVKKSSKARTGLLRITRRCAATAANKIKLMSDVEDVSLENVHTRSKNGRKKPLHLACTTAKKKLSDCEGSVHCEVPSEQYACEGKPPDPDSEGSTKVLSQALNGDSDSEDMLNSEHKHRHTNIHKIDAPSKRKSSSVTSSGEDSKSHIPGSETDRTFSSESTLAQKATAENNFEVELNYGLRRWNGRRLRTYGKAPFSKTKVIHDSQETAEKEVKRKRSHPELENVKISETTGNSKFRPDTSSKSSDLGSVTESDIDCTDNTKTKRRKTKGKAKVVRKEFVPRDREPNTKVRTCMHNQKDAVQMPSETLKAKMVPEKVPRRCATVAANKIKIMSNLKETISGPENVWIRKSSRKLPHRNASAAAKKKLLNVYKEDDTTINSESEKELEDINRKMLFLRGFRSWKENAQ

Compound `CNC(=O)c1cc(C(=O)N[C@@H]2[C@@H]3COC[C@@H]32)cc2c1O[C@H](CF)[C@H]2c1ccccc1` had a half-life in [1] of 4.8 h. In addition, the inhibition result in data set [2], in data set [3], in data set [4], in data set [5], in data set [6] and in data set [7] was “inactive” throughout. Further, the inhibition entry in [8], in [9], in data set [10], in data set [11] and in [12] was “inactive” in each case. In addition, it took 50.1 nM to reach half-maximal inhibition with Blood (IC50).

As a reminder, the half-life is the time needed for the level to fall by half in the phase considered. Broadly, the IC50 is the point on the concentration scale where inhibition reaches its midpoint. Low values mean higher potency, high ones lower potency.

For the origin of these results see ChEMBL document CHEMBL4619816, “GSK973 Is an Inhibitor of the Second Bromodomains (BD2s) of the Bromodomain and Extra-Terminal (BET) Family” (ACS Med Chem Lett, 2020).
